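1) Cells in 96-well plates. 2) Compound, 48 h, 5 concentrations. 3) Linear interpolation between surrounding doses. 4) Unreached endpoint = highest concentration. GI50: concentration for 50% inhibition of growth. TGI: total growth inhibition.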
Key:
Assay in all cases: NCI-60 cell line screen, 48 h
786-0 renal = system: 786-0 renal
A498 renal = system: A498 renal
A549 NSCLC = system: A549 NSCLC
ACHN renal = system: ACHN renal
BT-549 breast = system: BT-549 breast
CAKI-1 renal = system: CAKI-1 renal
CCRF-CEM leukemia = system: CCRF-CEM leukemia
COLO 205 colon = system: COLO 205 colon
DU-145 prostate = system: DU-145 prostate
EKVX NSCLC = system: EKVX NSCLC
HCC-2998 colon = system: HCC-2998 colon
HCT-116 colon = system: HCT-116 colon
HCT-15 colon = system: HCT-15 colon
HL-60(TB) leukemia = system: HL-60(TB) leukemia
HOP-62 NSCLC = system: HOP-62 NSCLC
HOP-92 NSCLC = system: HOP-92 NSCLC
HS 578T breast = system: HS 578T breast
HT29 colon = system: HT29 colon
IGROV1 ovarian = system: IGROV1 ovarian
K-562 leukemia = system: K-562 leukemia
KM12 colon = system: KM12 colon
LOX IMVI melanoma = system: LOX IMVI melanoma
M14 melanoma = system: M14 melanoma
MALME-3M melanoma = system: MALME-3M melanoma
MCF7 breast = system: MCF7 breast
MDA-MB-231 breast = system: MDA-MB-231 breast
MDA-MB-435 = system: MDA-MB-435
MOLT-4 leukemia = system: MOLT-4 leukemia
NCI-H226 lung = system: NCI-H226 lung
NCI-H23 lung = system: NCI-H23 lung
NCI-H460 lung = system: NCI-H460 lung
NCI-H522 lung = system: NCI-H522 lung
NCI/ADR-RES ovarian = system: NCI/ADR-RES ovarian
OVCAR-3 ovarian = system: OVCAR-3 ovarian
OVCAR-4 ovarian = system: OVCAR-4 ovarian
OVCAR-5 ovarian = system: OVCAR-5 ovarian
OVCAR-8 ovarian = system: OVCAR-8 ovarian
RPMI-8226 leukemia = system: RPMI-8226 leukemia
RXF 393 renal = system: RXF 393 renal
SF-268 CNS = system: SF-268 CNS
SF-295 CNS = system: SF-295 CNS
SF-539 CNS = system: SF-539 CNS
SK-MEL-2 melanoma = system: SK-MEL-2 melanoma
SK-MEL-28 melanoma = system: SK-MEL-28 melanoma
SK-MEL-5 melanoma = system: SK-MEL-5 melanoma
SK-OV-3 ovarian = system: SK-OV-3 ovarian
SN12C renal = system: SN12C renal
SNB-19 CNS = system: SNB-19 CNS
SNB-75 CNS = system: SNB-75 CNS
SR leukemia = system: SR leukemia
SW-620 colon = system: SW-620 colon
T-47D breast = system: T-47D breast
TK-10 renal = system: TK-10 renal
U251 CNS = system: U251 CNS
UACC-257 melanoma = system: UACC-257 melanoma
UACC-62 melanoma = system: UACC-62 melanoma
UO-31 renal = system: UO-31 renal

Structure (SMILES): COc1ccc(C2=NC(=O)NC2c2ccc(OC)cc2)cc1 (centres undefined)
- GI50 (786-0 renal): 26.9 µM
- TGI (786-0 renal): > 100 µM
- GI50 (A498 renal): 4.49 µM
- TGI (A498 renal): 29.1 µM
- GI50 (A549 NSCLC): 11.8 µM
- TGI (A549 NSCLC): > 100 µM
- GI50 (ACHN renal): 21.9 µM
- TGI (ACHN renal): > 100 µM
- GI50 (BT-549 breast): 3.89 µM
- TGI (BT-549 breast): 29.5 µM
- GI50 (CAKI-1 renal): 2.51 µM
- TGI (CAKI-1 renal): 15.4 µM
- GI50 (CCRF-CEM leukemia): 38.9 µM
- TGI (CCRF-CEM leukemia): > 100 µM
- GI50 (COLO 205 colon): 6.47 µM
- TGI (COLO 205 colon): 21.3 µM
- GI50 (DU-145 prostate): 23 µM
- TGI (DU-145 prostate): > 100 µM
- GI50 (EKVX NSCLC): 13 µM
- TGI (EKVX NSCLC): 64.6 µM
- GI50 (HCC-2998 colon): 13 µM
- TGI (HCC-2998 colon): 33.6 µM
- GI50 (HCT-116 colon): 5.9 µM
- TGI (HCT-116 colon): 27.7 µM
- GI50 (HCT-15 colon): 4.78 µM
- TGI (HCT-15 colon): > 100 µM
- GI50 (HL-60(TB) leukemia): 2.2 µM
- TGI (HL-60(TB) leukemia): 15.6 µM
- GI50 (HOP-62 NSCLC): 15.2 µM
- TGI (HOP-62 NSCLC): > 100 µM
- GI50 (HOP-92 NSCLC): 1.95 µM
- TGI (HOP-92 NSCLC): 30.5 µM
- GI50 (HS 578T breast): 7.18 µM
- TGI (HS 578T breast): 48.5 µM
- GI50 (HT29 colon): 3.78 µM
- TGI (HT29 colon): 27.9 µM
- GI50 (IGROV1 ovarian): 23.2 µM
- TGI (IGROV1 ovarian): > 100 µM
- GI50 (K-562 leukemia): 2.8 µM
- TGI (K-562 leukemia): 20.8 µM
- GI50 (KM12 colon): 4.5 µM
- TGI (KM12 colon): 29.5 µM
- GI50 (LOX IMVI melanoma): 12.4 µM
- TGI (LOX IMVI melanoma): > 100 µM
- GI50 (M14 melanoma): 4.03 µM
- TGI (M14 melanoma): 25.4 µM
- GI50 (MALME-3M melanoma): 4.91 µM
- TGI (MALME-3M melanoma): 68.3 µM
- GI50 (MCF7 breast): 4.34 µM
- TGI (MCF7 breast): > 100 µM
- GI50 (MDA-MB-231 breast): 12.3 µM
- TGI (MDA-MB-231 breast): > 100 µM
- GI50 (MDA-MB-435): 1.73 µM
- TGI (MDA-MB-435): 4.56 µM
- GI50 (MOLT-4 leukemia): 1.2 µM
- TGI (MOLT-4 leukemia): 96.7 µM
- GI50 (NCI-H226 lung): 14.8 µM
- TGI (NCI-H226 lung): > 100 µM
- GI50 (NCI-H23 lung): 12.9 µM
- TGI (NCI-H23 lung): 78.3 µM
- GI50 (NCI-H460 lung): 6.73 µM
- TGI (NCI-H460 lung): 51.8 µM
- GI50 (NCI-H522 lung): 5.02 µM
- TGI (NCI-H522 lung): 60.9 µM
- GI50 (NCI/ADR-RES ovarian): 4.38 µM
- TGI (NCI/ADR-RES ovarian): 58.5 µM
- GI50 (OVCAR-3 ovarian): 10.8 µM
- TGI (OVCAR-3 ovarian): 35.3 µM
- GI50 (OVCAR-4 ovarian): 31.5 µM
- TGI (OVCAR-4 ovarian): > 100 µM
- GI50 (OVCAR-5 ovarian): 25.9 µM
- TGI (OVCAR-5 ovarian): > 100 µM
- GI50 (OVCAR-8 ovarian): 29.6 µM
- TGI (OVCAR-8 ovarian): > 100 µM
- GI50 (RPMI-8226 leukemia): 7.58 µM
- TGI (RPMI-8226 leukemia): 50.6 µM
- GI50 (RXF 393 renal): 12 µM
- TGI (RXF 393 renal): 51.5 µM
- GI50 (SF-268 CNS): 16.5 µM
- TGI (SF-268 CNS): > 100 µM
- GI50 (SF-295 CNS): 5.35 µM
- TGI (SF-295 CNS): 47.5 µM
- GI50 (SF-539 CNS): 12.6 µM
- TGI (SF-539 CNS): 54.8 µM
- GI50 (SK-MEL-2 melanoma): 5.34 µM
- TGI (SK-MEL-2 melanoma): 52.8 µM
- GI50 (SK-MEL-28 melanoma): 14.9 µM
- TGI (SK-MEL-28 melanoma): > 100 µM
- GI50 (SK-MEL-5 melanoma): 3.29 µM
- TGI (SK-MEL-5 melanoma): 14.2 µM
- GI50 (SK-OV-3 ovarian): 19.9 µM
- TGI (SK-OV-3 ovarian): > 100 µM
- GI50 (SN12C renal): 15.4 µM
- TGI (SN12C renal): > 100 µM
- GI50 (SNB-19 CNS): 16.9 µM
- TGI (SNB-19 CNS): > 100 µM
- GI50 (SNB-75 CNS): 5.39 µM
- TGI (SNB-75 CNS): 65 µM
- GI50 (SR leukemia): 1.63 µM
- TGI (SR leukemia): 6.91 µM
- GI50 (SW-620 colon): 4.65 µM
- TGI (SW-620 colon): > 100 µM
- GI50 (T-47D breast): 6.9 µM
- TGI (T-47D breast): > 100 µM
- GI50 (TK-10 renal): 4.43 µM
- TGI (TK-10 renal): 35.9 µM
- GI50 (U251 CNS): 7.85 µM
- TGI (U251 CNS): > 100 µM
- GI50 (UACC-257 melanoma): 36.3 µM
- TGI (UACC-257 melanoma): > 100 µM
- GI50 (UACC-62 melanoma): 4.15 µM
- TGI (UACC-62 melanoma): 32.7 µM
- GI50 (UO-31 renal): 20.7 µM
- TGI (UO-31 renal): > 100 µM
